Measured values: patent US20230295200A1 (REGENTS OF THE UNIVERSITY OF MICHIGAN, priority 2022, published 2023)

How the values were obtained:
[1] = molecular target: T1, STAT5A (Homo sapiens, UniProt P42229); test: Fluorescence polarization (FP) binding assay, STAT5A; conditions: FP competition, 5 nM fluorescein-labeled tracer, 200 nM protein, PBS pH7.4
T1 sequence (P42229 1-794): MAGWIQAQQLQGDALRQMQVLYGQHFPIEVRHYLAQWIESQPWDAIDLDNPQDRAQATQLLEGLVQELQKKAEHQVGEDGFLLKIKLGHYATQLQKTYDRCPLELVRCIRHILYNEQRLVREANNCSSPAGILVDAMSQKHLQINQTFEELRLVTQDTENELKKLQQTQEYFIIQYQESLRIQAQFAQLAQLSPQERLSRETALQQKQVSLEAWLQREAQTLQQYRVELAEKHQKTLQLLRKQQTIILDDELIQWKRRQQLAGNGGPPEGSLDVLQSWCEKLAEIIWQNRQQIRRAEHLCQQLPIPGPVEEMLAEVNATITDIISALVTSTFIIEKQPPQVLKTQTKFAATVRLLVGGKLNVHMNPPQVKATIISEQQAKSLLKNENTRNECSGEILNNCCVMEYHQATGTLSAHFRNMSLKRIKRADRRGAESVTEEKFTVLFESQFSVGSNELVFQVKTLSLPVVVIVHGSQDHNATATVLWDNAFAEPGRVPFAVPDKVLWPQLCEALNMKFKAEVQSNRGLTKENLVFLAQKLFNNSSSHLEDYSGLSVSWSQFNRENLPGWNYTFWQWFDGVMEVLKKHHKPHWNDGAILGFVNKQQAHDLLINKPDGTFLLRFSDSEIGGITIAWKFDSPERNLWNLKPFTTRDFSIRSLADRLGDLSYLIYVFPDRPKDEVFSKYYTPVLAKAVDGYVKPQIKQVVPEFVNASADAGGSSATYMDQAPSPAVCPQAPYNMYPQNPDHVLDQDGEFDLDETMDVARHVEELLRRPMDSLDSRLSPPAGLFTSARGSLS
Procedure, shortened: (§1)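 Polarization read after 1 h equilibration at room temperature (preceded by 15 min shaking) of 200 nM STAT5 and/or STAT6 with 5 nM fluorescein tracer. Buffer: PBS pH 7.4 plus 0.01% BGG, 0.01% Tween-20, 2 mM DTT; inhibition constants derived by nonlinear fitting.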

[2] = molecular target: T2, STAT6 protein (Homo sapiens, UniProt P42226); test: Fluorescence polarization (FP) binding assay, STAT6; conditions: FP competition, 5 nM fluorescein-labeled tracer, 200 nM protein, PBS pH7.4; read-out: Binding STAT6
T2 sequence (P42226 1-847): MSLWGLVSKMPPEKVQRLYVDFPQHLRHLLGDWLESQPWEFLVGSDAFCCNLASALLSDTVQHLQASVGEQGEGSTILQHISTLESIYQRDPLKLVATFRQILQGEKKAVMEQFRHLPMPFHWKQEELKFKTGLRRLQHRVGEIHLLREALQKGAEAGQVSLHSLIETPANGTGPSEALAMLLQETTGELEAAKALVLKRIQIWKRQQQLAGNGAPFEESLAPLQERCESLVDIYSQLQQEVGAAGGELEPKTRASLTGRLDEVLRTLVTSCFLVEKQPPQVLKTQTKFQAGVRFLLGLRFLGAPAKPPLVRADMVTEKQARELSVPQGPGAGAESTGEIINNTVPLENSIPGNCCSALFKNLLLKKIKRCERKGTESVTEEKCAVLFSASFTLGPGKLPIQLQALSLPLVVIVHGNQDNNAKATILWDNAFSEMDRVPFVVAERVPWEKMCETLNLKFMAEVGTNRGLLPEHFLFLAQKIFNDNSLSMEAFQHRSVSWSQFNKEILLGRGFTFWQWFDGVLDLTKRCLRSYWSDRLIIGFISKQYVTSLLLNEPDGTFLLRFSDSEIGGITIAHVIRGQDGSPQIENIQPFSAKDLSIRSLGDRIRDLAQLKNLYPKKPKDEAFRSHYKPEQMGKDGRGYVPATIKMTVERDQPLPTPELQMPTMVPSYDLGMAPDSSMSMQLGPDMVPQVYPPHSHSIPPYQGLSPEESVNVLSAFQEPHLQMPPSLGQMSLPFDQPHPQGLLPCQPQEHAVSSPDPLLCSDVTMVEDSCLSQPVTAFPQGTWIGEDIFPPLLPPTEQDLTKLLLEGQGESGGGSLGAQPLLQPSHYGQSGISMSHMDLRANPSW
Procedure, shortened: as §1

| Structure (SMILES) | Ki [1] | Ki [2] |
| --- | --- | --- |
| CC(C)(C)[C@H](NC(=O)c1cc2cc(C(F)(F)P(=O)(O)O)ccc2s1)C(=O)N1Cc2ccccc2[C@H]1C(=O)N1CC[C@@H](c2ccccc2)C1 [Compound 198, ((2-(((S)-3,3-dimethyl-1-oxo-1-((S)-1-((S)-3-phenylpyrrolidine-1-carbonyl)isoindolin-2-yl)butan-2-yl)carbamoyl)benzo[b]thiophen-5-yl)difluoromethyl)phosphonic acid] | 1000 to 10000 nM | 100 to 1000 nM |
| CC(C)(C)[C@H](NC(=O)c1cc2cc(C(F)(F)P(=O)(O)O)ccc2s1)C(=O)N1Cc2ccccc2[C@H]1C(=O)N1Cc2ccccc2C1 [Compound 199, (difluoro(2-(((S)-1-((S)-1-(isoindoline-2-carbonyl)isoindolin-2-yl)-3,3-dimethyl-1-oxobutan-2-yl)carbamoyl)benzo[b]thiophen-5-yl)methyl)phosphonic acid] | > 10000 nM | 1000 to 10000 nM |
| CC(C)(C)[C@H](NC(=O)c1cc2cc(C(F)(F)P(=O)(O)O)ccc2s1)C(=O)N1Cc2ccccc2[C@H]1C(=O)Nc1ncc(-c2ccccc2)s1 [Compound 200, ((2-(((S)-3,3-dimethyl-1-oxo-1-((S)-1-((5-phenylthiazol-2-yl)carbamoyl)isoindolin-2-yl)butan-2-yl)carbamoyl)benzo[b]thiophen-5-yl)difluoromethyl)phosphonic acid] | 100 to 1000 nM | 1000 to 10000 nM |
| CC(C)(C)[C@H](NC(=O)c1cc2cc(C(F)(F)P(=O)(O)O)ccc2s1)C(=O)N1CCN(C(=O)OCc2ccccc2)C[C@H]1C(=O)Nc1ncc(-c2ccccc2)s1 [Compound 201, ((2-(((S)-1-((S)-4-((benzyloxy)carbonyl)-2-((5-phenylthiazol-2-yl)carbamoyl)piperazin-1-yl)-3,3-dimethyl-1-oxobutan-2-yl)carbamoyl)benzo[b]thiophen-5-yl)difluoromethyl)phosphonic acid] | 100 to 1000 nM | 1000 to 10000 nM |
| CC(C)(C)[C@H](NC(=O)c1cc2cc(C(F)(F)P(=O)(O)O)ccc2s1)C(=O)N1C[C@H](OCc2ccccc2)C[C@H]1C(=O)N1Cc2ccccc2C1 [Compound 202, ((2-(((S)-1-((2S,4R)-4-(benzyloxy)-2-(isoindoline-2-carbonyl)pyrrolidin-1-yl)-3,3-dimethyl-1-oxobutan-2-yl)carbamoyl)benzo[b]thiophen-5-yl)difluoromethyl)phosphonic acid] | 1000 to 10000 nM | 1000 to 10000 nM |
| CC(C)(C)[C@H](NC(=O)c1cc2cc(C(F)(F)P(=O)(O)O)ccc2s1)C(=O)N1C[C@H](OCc2ccccc2)C[C@H]1C(=O)Nc1ncc(-c2ccccc2)s1 [Compound 203, ((2-(((S)-1-((2S,4R)-4-(benzyloxy)-2-((5-phenylthiazol-2-yl)carbamoyl)pyrrolidin-1-yl)-3,3-dimethyl-1-oxobutan-2-yl)carbamoyl)benzo[b]thiophen-5-yl)difluoromethyl)phosphonic acid] | 100 to 1000 nM | 1000 to 10000 nM |
| CCOC(=O)CO[C@H]1C[C@@H](C(=O)Nc2ncc(-c3ccccc3)s2)N(C(=O)[C@@H](NC(=O)c2cc3cc(C(F)(F)P(=O)(O)O)ccc3s2)C(C)(C)C)C1 [Compound 205, ((2-(((S)-1-((2S,4S)-4-(2-ethoxy-2-oxoethoxy)-2-((5-phenylthiazol-2-yl)carbamoyl)pyrrolidin-1-yl)-3,3-dimethyl-1-oxobutan-2-yl)carbamoyl)benzo[b]thiophen-5-yl)difluoromethyl)phosphonic acid] | 1000 to 10000 nM | 1000 to 10000 nM |
| CCOC(=O)CO[C@@H]1C[C@@H](C(=O)Nc2ncc(-c3ccccc3)s2)N(C(=O)[C@@H](NC(=O)c2cc3cc(C(F)(F)P(=O)(O)O)ccc3s2)C(C)(C)C)C1 [Compound 206, ((2-(((S)-1-((2S,4R)-4-(2-ethoxy-2-oxoethoxy)-2-((5-phenylthiazol-2-yl)carbamoyl)pyrrolidin-1-yl)-3,3-dimethyl-1-oxobutan-2-yl)carbamoyl)benzo[b]thiophen-5-yl)difluoromethyl)phosphonic acid] | 100 to 1000 nM | 1000 to 10000 nM |
| CC(C)(C)[C@H](NC(=O)c1cc2cc(C(F)(F)P(=O)(O)O)ccc2s1)C(=O)N1C[C@@H](Oc2ccccc2)C[C@H]1C(=O)Nc1ncc(-c2ccccc2)s1 [Compound 207, ((2-(((S)-3,3-dimethyl-1-oxo-1-((2S,4S)-4-phenoxy-2-((5-phenylthiazol-2-yl)carbamoyl)pyrrolidin-1-yl)butan-2-yl)carbamoyl)benzo[b]thiophen-5-yl)difluoromethyl)phosphonic acid] | 1000 to 10000 nM | 1000 to 10000 nM |

Other lines, results leading:

| Ki [1] | Ki [2] | Structure (SMILES) |
| --- | --- | --- |
| 100 to 1000 nM | 1000 to 10000 nM | CC(C)(C)[C@H](NC(=O)c1cc2cc(C(F)(F)P(=O)(O)O)ccc2s1)C(=O)N1C[C@H](Oc2ccccc2)C[C@H]1C(=O)Nc1ncc(-c2ccccc2)s1 [Compound 208, ((2-(((S)-3,3-dimethyl-1-oxo-1-((2S,4R)-4-phenoxy-2-((5-phenylthiazol-2-yl)carbamoyl)pyrrolidin-1-yl)butan-2-yl)carbamoyl)benzo[b]thiophen-5-yl)difluoromethyl)phosphonic acid] |
| > 10000 nM | 1000 to 10000 nM | CC(C)(C)[C@H](NC(=O)c1cc2cc(C(F)(F)P(=O)(O)O)ccc2s1)C(=O)N1C[C@@H](Oc2ccc3ccccc3c2)C[C@H]1C(=O)Nc1ncc(-c2ccccc2)s1 [Compound 209, ((2-(((S)-3,3-dimethyl-1-((2S,4S)-4-(naphthalen-2-yloxy)-2-((5-phenylthiazol-2-yl)carbamoyl)pyrrolidin-1-yl)-1-oxobutan-2-yl)carbamoyl)benzo[b]thiophen-5-yl)difluoromethyl)phosphonic acid] |
| 1000 to 10000 nM | 1000 to 10000 nM | CC(C)(C)[C@H](NC(=O)c1cc2cc(C(F)(F)P(=O)(O)O)ccc2s1)C(=O)N1C[C@H](Oc2ccc3ccccc3c2)C[C@H]1C(=O)Nc1ncc(-c2ccccc2)s1 [Compound 210, ((2-(((S)-3,3-dimethyl-1-((2S,4R)-4-(naphthalen-2-yloxy)-2-((5-phenylthiazol-2-yl)carbamoyl)pyrrolidin-1-yl)-1-oxobutan-2-yl)carbamoyl)benzo[b]thiophen-5-yl)difluoromethyl)phosphonic acid] |
| 1000 to 10000 nM | 100 to 1000 nM | CC(C)(C)[C@H](NC(=O)c1cc2cc(C(F)(F)P(=O)(O)O)ccc2s1)C(=O)N1CCC[C@H]1C(=O)Nc1ncc(Cc2ccccc2)s1 [Compound 211, ((2-(((S)-1-((S)-2-((5-benzylthiazol-2-yl)carbamoyl)pyrrolidin-1-yl)-3,3-dimethyl-1-oxobutan-2-yl)carbamoyl)benzo[b]thiophen-5-yl)difluoromethyl)phosphonic acid] |
| 1000 to 10000 nM | 1000 to 10000 nM | CC(C)(C)[C@H](NC(=O)c1cc2cc(C(F)(F)P(=O)(O)O)ccc2s1)C(=O)N1CCC[C@H]1C(=O)Nc1nc(Cc2ccccc2)cs1 [Compound 212, ((2-(((S)-1-((S)-2-((4-benzylthiazol-2-yl)carbamoyl)pyrrolidin-1-yl)-3,3-dimethyl-1-oxobutan-2-yl)carbamoyl)benzo[b]thiophen-5-yl)difluoromethyl)phosphonic acid] |
| > 10000 nM | 1000 to 10000 nM | CC(C)(C)[C@H](NC(=O)c1cc2cc(C(F)(F)P(=O)(O)O)ccc2s1)C(=O)N1CCC[C@H]1C(=O)Nc1nc2ccccc2s1 [Compound 213, ((2-(((S)-1-((S)-2-(benzo[d]thiazol-2-ylcarbamoyl)pyrrolidin-1-yl)-3,3-dimethyl-1-oxobutan-2-yl)carbamoyl)benzo[b]thiophen-5-yl)difluoromethyl)phosphonic acid] |
